Measured values as given in PMC10762035, “Molecular basis of human trace amine-associated receptor 1 activation” (Nature Communications, 2024).
Positions count from the first letter of the chain named. “And” between values parts separate entries of the source, which are not always exact repeats. Equal values may be shown once.

Experiments:
[1] = molecular target: T1, hTA1 T271A (Homo sapiens, UniProt Q96RJ0, T271A); assay: GloSensor cAMP accumulation assay, T271A mutant; assay type: cell-based
T1 construct: expressed in transfected cells; host or cells: HEK293T
T1 sequence (Q96RJ0 1-339 T271A): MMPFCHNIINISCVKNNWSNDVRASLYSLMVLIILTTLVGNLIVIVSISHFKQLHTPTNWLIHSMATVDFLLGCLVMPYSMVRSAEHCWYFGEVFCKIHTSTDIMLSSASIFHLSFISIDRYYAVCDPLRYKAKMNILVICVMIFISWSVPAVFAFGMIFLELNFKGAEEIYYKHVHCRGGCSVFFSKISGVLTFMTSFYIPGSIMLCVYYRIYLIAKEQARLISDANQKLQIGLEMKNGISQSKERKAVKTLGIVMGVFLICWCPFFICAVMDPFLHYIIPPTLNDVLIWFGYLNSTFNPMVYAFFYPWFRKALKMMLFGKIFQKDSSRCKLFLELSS

[2] = molecular target: T2, hTA1 C5S (Homo sapiens, UniProt Q96RJ0, C5S); assay: GloSensor cAMP accumulation assay, C5S mutant; assay type: cell-based; details: for C5S - Normalized Luminescence Counts (N=2): log[Compound], single wells
T2 construct: expressed in transfected cells; host or cells: HEK293T
T2 sequence (Q96RJ0 1-339 C5S): T1 sequence (Q96RJ0 1-339 T271A) with C5S, A271T

[3] = molecular target: T3, β2AR-Nterm-hTA1-F112^3.41W (CryoEM Construct) (Homo sapiens, UniProt Q96RJ0, F112W); assay: GloSensor cAMP accumulation assay, cryoEM construct; assay type: cell-based;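 also: cells transiently co-transfected with the receptor construct and GloSensor cAMP biosensor, luminescence read after 30 min compound exposure at room temperature in the dark as cAMP accumulation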;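 as to Normalized Luminescence Counts (N=2): normalized to the maximum response of β-PEA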
T3 construct: FLAG (N); 10xHis (N); TEV protease site (N); expressed in transfected cells; host or cells: HEK293T
T3 sequence (Q96RJ0 with tags, fused parts or gaps F112W): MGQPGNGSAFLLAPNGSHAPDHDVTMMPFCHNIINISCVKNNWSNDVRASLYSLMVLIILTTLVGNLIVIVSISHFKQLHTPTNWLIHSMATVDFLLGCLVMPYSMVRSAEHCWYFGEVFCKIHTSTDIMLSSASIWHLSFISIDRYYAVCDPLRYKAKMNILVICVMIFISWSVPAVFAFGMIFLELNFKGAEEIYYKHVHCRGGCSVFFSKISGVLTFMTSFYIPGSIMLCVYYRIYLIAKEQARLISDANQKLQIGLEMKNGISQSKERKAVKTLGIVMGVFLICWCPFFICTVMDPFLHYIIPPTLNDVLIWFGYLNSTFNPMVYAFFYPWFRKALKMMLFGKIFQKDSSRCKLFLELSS

[4] = molecular target: T4, hTA1 T194A (Homo sapiens, UniProt Q96RJ0, T194A); assay: GloSensor cAMP accumulation assay, T194A mutant; details: for cAMP accumulation response, individual replicate values of the concentration-response curve: hTA1 T194A, log[Agonist], Supplementary Figure 5 source data
T4 sequence (Q96RJ0 1-339 T194A): T1 sequence (Q96RJ0 1-339 T271A) with T194A, A271T

[5] = molecular target: T5, hTA1 C88/178S (Homo sapiens, UniProt Q96RJ0, C178S/C88S); assay: GloSensor cAMP accumulation assay, C88S/C178S double mutant; assay type: cell-based; details: for Normalized Luminescence Counts (N=2): log[Compound], single replicate values
T5 construct: expressed in transfected cells; host or cells: HEK293T
T5 sequence (Q96RJ0 1-339 C88S/C178S): T1 sequence (Q96RJ0 1-339 T271A) with C88S, C178S, A271T

[6] = Cryo EM Construct, mean of each independent experiment (3 replicates)
[7] = C88S, C178S, each row is one independent experiment, 3 replicates

With `NCCc1ccccc1` [β-PEA, β-phenethylamine] the “reduction in potency vs wild type” value ([1]; T271A) was “about 10 fold”, the “ΔpEC50 values (each mutant value - WT average), Mean” value (“ΔpEC50 values” below) ([1]; T271A mutant minus WT average, Figure 5B) was -1.015 and -0.8638 and the “pEC50 values, Mean” value ([1]; T271A mutant, Figure 5B, each row one independent experiment (3 replicates)) was 6.079 and 6.23. For the same molecule, the “Emax values, Mean” value ([1]; T271A mutant, Figure 5B, β-PEA = 100, each row one independent experiment (3 replicates)) was 100, the “Span ± SEM (Emax normalized to β-PEA)” value ([1]; T271A, n=2) was 100 ± 2.03 and the “pEC50 ± SEM” value ([1]; T271A, n=2) was 6.15 ± 0.03. The EC50 ([1]; T271A, n=2, read-out: EC50) was 701 nM, the “Span ± SEM (Emax normalized to β-PEA)” value ([2]; C5S, n=2) was 100 ± 2.22 and the “pEC50 ± SEM” value ([2]; C5S, n=2) was 7.04 ± 0.05. The EC50 ([2]; C5S, n=2, read-out: EC50) was 90.7 nM, the “ΔEmax values (each mutant value - WT average), Mean” value (shortened to “ΔEmax values … Mean”) ([2]; hTA1 C5S minus WT average) was 0 and the “ΔpEC50 values” value ([2]; hTA1 C5S minus WT average) was 0.0587 and -0.1606. The “pEC50 values, Mean” value ([2]; hTA1 C5S, mean of 3 replicates, one line per independent experiment) was 7.152 and 6.9329, the “Emax values, Mean” value ([2]; hTA1 C5S, β-PEA = 100, mean of 3 replicates, one line per independent experiment) was 100 and the “C5S - Normalized Luminescence Counts (N=2)” value ([2]; M = -5) was 105.865 and 101.779 and 112.458 and 98.7643 and 96.9001 and 118.028. For the same molecule, the “C5S - Normalized Luminescence Counts (N=2)” value ([2]; M = -5.522) was 88.1188 and 112.932 and 94.5762 and 114.438 and 73.9771 and 93.1716, the “C5S - Normalized Luminescence Counts (N=2)” value ([2]; M = -6) was 83.9419 and 90.8734 and 98.6952 and 79.8459 and 79.6388 and the “C5S - Normalized Luminescence Counts (N=2)” value ([2]; M = -6.522) was 76.5362 and 74.7073 and 70.3723 and 75.427 and 66.8654 and 70.3867. The “C5S - Normalized Luminescence Counts (N=2)” value ([2]; M = -7) was 61.9506 and 59.2638 and 58.7445 and 43.9424 and 45.3233 and 47.3256, the “C5S - Normalized Luminescence Counts (N=2)” value ([2]; M = -8.522) was 3.721 and 3.676 and 4.421 and 4.379 and 2.308 and 3.965 and the “ΔEmax values … Mean” value ([3]; Cryo EM Construct minus WT average) was 0. The “Emax values, Mean” value [3, 6] was 0.8322, the “pEC50 values, Mean” value [3, 6] was 7.553 and 7.926 and the “Normalized Luminescence Counts (N=2)” value ([3]; CryoEM Construct, log[Compound], M = -5, single replicates) was 99.4824 and 93.6783 and 105.677 and 107.109. The “Span ± SEM (Emax normalized to β-PEA)” value ([3]; CryoEM Construct, n=2) was 100 ± 1.84, the “pEC50 ± SEM” value ([3]; CryoEM Construct, n=2) was 7.75 ± 0.04 and the EC50 ([3]; CryoEM Construct, n=2, read-out: EC50) was 17.4 nM. The “pEC50 values, Mean” value ([4]; T149A (so in the source), single experiments (3 replicates each)) was 7.395 and 7.196 and 7.094, the “Emax values, Mean” value ([4]; T149A (so in the source), single experiments (3 replicates each), β-PEA = 100) was 100 and the EC50 ([4]; T194A) was 63.6 nM. For the same molecule, the “Span ± SEM (Emax normalized to β-PEA)” value ([4]; T194A) was 100 ± 2.46, the “pEC50 ± SEM” value ([4]; T194A) was 7.23 ± 0.13 and the “cAMP accumulation response, individual replicate values of the concentration-response curve” value (“cAMP accumulation response” for short) ([4]; M = -7.522) was 32.1474 and 24.1931 and 33.6304 and 28.9237 and 30.7017 and 33.27 and 42.7604 and 43.2488 and 44.1811. The “cAMP accumulation response” value ([4]; M = -8) was 31.2036 and 13.6773 and 15.1603 and 14.8971 and 13.5142 and 22.7372 and 24.6907 and 22.9592, the “cAMP accumulation response” value ([4]; M = -8.522) was 3.836 and 0.5999 and 3.97 and 8.1802 and 2.846 (2×) and 8.885 and 8.264 and 10.2172 and the “cAMP accumulation response” value ([4]; M = -9) was 2.487 and 2.892 and 1.813 and 0.4755 and 2.056 and 3.424 and 1.293 (2×). The “cAMP accumulation response” value ([4]; M = -9.522) was 1.678 and 0.1954 and 0.8695 and 0.08035 (2×) and -0.5123 and 0.3166 and -0.7046 and 0.139, the “cAMP accumulation response” value ([4]; M = -10) was -0.6135 and -0.209 and 0.1954 and -0.5123 and -0.3148 and -0.08302 and -0.1718 and -0.749 and the “cAMP accumulation response” value ([4]; M = -10.522) was -0.4787 and -1.692 and -1.557 and -1.303 (2×) and -1.5 and -0.7934 and -0.6602 and -0.6158. For the same molecule, the “cAMP accumulation response” value ([4]; M = -11) was -1.4224 (2×) and -0.7483 and -0.9074 and -0.7099 and -0.4382 and -0.8378 and 0.05017, the “cAMP accumulation response” value ([4]; M = -11.522) was 0.4651 and -1.018 and -1.153 and -0.5123 and -0.7099 (2×) and -0.4382 and -1.015 and -0.6602 and the “cAMP accumulation response” value ([4]; M = -12) was -0.07421 (2×) and -1.962 and -1.698 and -1.105 and -0.1274 and -0.6602 and -0.1718. For the same molecule, the “cAMP accumulation response” value ([4]; M = -12.522) was 0.0606 and 1.004 and 0.8695 and -0.9074 and -0.7099 and -0.3148 and -0.1718 and -0.305 and 0.1834, the “ΔEmax values (each mutant value - WT average)” value ([4]; minus WT average) was 0 and the “Span ± SEM (Emax normalized to β-PEA)” value ([5]; C88/178S, n=2) was 100 ± 2.48. The “pEC50 ± SEM” value ([5]; C88/178S, n=2) was 6.88 ± 0.05, the EC50 ([5]; C88/178S, n=2, read-out: EC50) was 131 nM and the “pEC50 values, Mean” value [5, 7] was 6.846 and 6.92. The “ΔEmax values … Mean” value [5, 7] was 0, the “ΔpEC50 values” value [5, 7] was -0.2478 and -0.1738 and the “Normalized Luminescence Counts (N=2)” value ([5]; C88S, C178S, M = -5) was 101.882 and 95.4366 and 102.899 and 85.0446 and 70.847 and 114.648. For the same molecule, the “Normalized Luminescence Counts (N=2)” value ([5]; C88S, C178S, M = -5.522) was 95.8888 and 94.7581 and 92.1574 and 110.721 and 84.1384 and 118.726, the “Normalized Luminescence Counts (N=2)” value ([5]; C88S, C178S, M = -6) was 93.4012 and 85.4861 and 88.3694 and 88.8206 and 85.1957 and 105.284 and the “Normalized Luminescence Counts (N=2)” value ([5]; C88S, C178S, M = -6.522) was 70.73 and 60.7795 and 60.3272 and 66.7689 and 68.1283 and 68.2793. The “Normalized Luminescence Counts (N=2)” value ([5]; C88S, C178S, M = -7) was 45.3449 and 38.504 and 42.0658 and 45.3213 and 30.2174 and 49.8525, the “Normalized Luminescence Counts (N=2)” value ([5]; C88S, C178S, M = -7.522) was 20.2426 and 24.5959 and 17.7549 and 22.8165 and 30.2174 and 24.931 and the “Normalized Luminescence Counts (N=2)” value ([5]; C88S, C178S, M = -8) was 8.37 and 6.617 and 6.9 and 9.072 and 8.317 and 8.6188. The “Normalized Luminescence Counts (N=2)” value ([5]; C88S, C178S, M = -8.522) was 1.02 and 2.433 and 0.1154 and 4.692 and 3.483 and 4.843, the “Normalized Luminescence Counts (N=2)” value ([5]; C88S, C178S, M = -9) was 0.5677 and 0.7373 and -0.4499 and -0.2925 (2×) and 1.218 and the “Normalized Luminescence Counts (N=2)” value ([5]; C88S, C178S, M = -9.522) was 0.002362 and 0.3416 and -0.5065 and -0.8967 and 0.3116 and 0.009559. The “Normalized Luminescence Counts (N=2)” value ([5]; C88S, C178S, M = -10) was -0.9588 and 0.002362 and -0.3934 and -1.652 and -0.4436 and -1.199, the “Normalized Luminescence Counts (N=2)” value ([5]; C88S, C178S, M = -10.522) was -1.185 and -0.563 and -1.0153 and -1.803 and 0.009559 and -1.35 and the “Normalized Luminescence Counts (N=2)” value ([5]; C88S, C178S, M = -11) was -0.05417 and -0.2238 and 0.4547 and -0.2925 and -1.652 and -0.7456. The “Normalized Luminescence Counts (N=2)” value ([5]; C88S, C178S, M = -11.522) was 0.172 and 0.1154 and 0.7939 and 0.1606 and -1.954 and -0.4436, the “Normalized Luminescence Counts (N=2)” value ([5]; C88S, C178S, M = -12) was 0.172 and -0.6195 and -0.5065 and -0.1415 and -1.35 and 0.9158 and the “Normalized Luminescence Counts (N=2)” value ([5]; C88S, C178S, M = -12.522) was -0.2803 and 0.2285 and 0.002362 and -1.199 and 0.4627 and 0.6137. The “Emax values, Mean” value ([5]; C88S, C178S, normalized (β-PEA = 100), each row is one independent experiment, 3 replicates) was 100.
